From patent publication US8278265B2, “Methods, kits and compositions comprising crotamine” (Fundacao de Amparo a Pesquisa do Estado de Sao Paulo—FAPESP, priority 2005, dated 2012)

What was measured:
[1] = test system: human limfoblastoids, B16 murine melanoma cells, HCT116 colon cancer cells, human mesenchymal stem cells from bone marrow and dental pulp; test: In vitro transfection with crotamine-DNA aggregates; type: cell-based
[2] = test system: Murine pluripotent embryonic stem cells; test: In vitro incorporation of Cy3-crotamine in pluripotent embryonic stem cells; type: cell-based; settings: FIG. 2D and E
Description: Embrionary stem cells (ES) from mice, line USP-1 (Soukoyan, M. A., Kerkis, A. Y., Mello, M. R. B., Kerkis, I. E., Visintin, J. A., Pereira, L. V. (2002), Establishment of New Murine Embryonic Stem Cell Lines for the Generation of Mouse Models of Human Genetic Diseases, Braz. J. Med. Biol. Res. 35, 535-542) in the passage 8-10 were cultured on a layer of γ-irradiated embrionary fibroblasts of mice, kept in DMEM (Gibco, U.S.A.), supplemented with 15% FCS (Gibco, U.S.A.), 1 mM sodium piruvate, 1% non-essential amino acids, 0.1 mM β-mercaptoethanol and 1×103 U/ml murine Leukemia Inhibitor Factor (LIF) (ESGRO-LIF, Gibco). Human lymphoblastoids and primary fibroblasts were cultivated in DMEM and in RPMI, respectively, supplemented with 10% FCS with no antibiotics. Cultures were kept under humid atmosphere at 37° C. and 5% CO2.
In vitro assay: Semiconffluent cultures of pluripotent and differentiation ES cells (homogeneous cell population), as well as other cell cultures of normal and tumor origin, were kept in small laminar slides placed in 24-well plates containing appropriate culture medium. Cells were incubated for 2-3 minutes to 72 hours in the presence of Cy3-crotamine, under concentrations between 10 μM and 0.01 μM, or as control, just in the presence of the dye agent Cy3 diluted in 1 ml PBS (control). […]

chromosomes = test: Chromosome analysis; type: cell-based; settings: 1 μM, compared with DAPI or 5-BrDU staining
Description: 1 μM crotamine conjugated to Cy3 was added to the culture of ES-USP1 cells, human lymphoblastoids and primary fibroblasts for 1, 3, 6 and 24 hours. Cells were collected and treated according to the routine cytogenetic protocol, with no addition of colchicine. Digital images were obtained with refrigerated CCD (PCO, VC44) and processed by using ISIS software (MetaSystem).

plasmid DNA = test: Peptide-DNA interaction by circular dichroism; type: binding; settings: molar ratio 200:1 and 1:1 (crotamine:DNA), absence and presence of 150 mM NaCl
Description: Circular dichroism spectra were taken in a spectropolarymeter JASCO 810 with a Peltier system for temperature control. The device is regularly calibrated with recrystallized d-10 camphorsulfonic acid. Standards used for the equipment were: wavelength range 190-260 nm; sensitivity 100 mdeg; resolution 0.5 nm; response 8 s; reading speed 50 nm/min; 8 accumulations; temperature 37° C. Samples were analysed in a 1 mm optical path cell in 10 mM sodium phosphate buffer, pH 7.4, in the presence or absence of 150 mM NaCl. The crotamine concentration used was 20 μM and plasmid DNA concentration was 0.1 μM. […]

[3] = test system: linear and/or circular double strand DNA; test: DNA-peptide interaction by agarose gel electrophoresis (gel shift assay); type: binding; settings: various molar proportions, FIG. 6
Description: The interaction between crotamine and DNA was analysed by an interference assay for DNA migration in agarose gel. 1 μg DNA and an increasing concentration of crotamine was added in a total volume of 25 μl, containing 150 mM NaCl. Twenty minutes after the mixture was prepared, samples were analysed by agarose gel electrophoresis (1%), using Tris-borate-EDTA buffer, followed by visualization by staining the nucleic acid with the ethidium bromide.
The formation of the complex between the peptide and DNA was analysed by the electrophoretic mobility of the complex in agarose gel (1%, w/v) by varying the molar proportions between the peptide and the double-strand DNA. Tests were made by mixing plasmid DNA (2 or 4 μg) with 10 μg of pure crotamine, in the presence or absence of 150 mM NaCl, which were applied on agarose gel immersed in Tris borate-EDTA buffer. DNA was then observed after staining with ethidium bromide and using UV light transiluminator. Gel documentation after electrophoresis was made by using an image digitizer (model FLA3000). This system of electrophoresis allows to observe changes in the migration pattern (migration delay) due to the neutralization of nucleic acid by cationic peptide present and/or due to the formation of larger complexes between crotamine and DNA (FIG. 6). […]

mice = settings: injected intraperitoneally; cited from earlier work

Sequence: YKQCHKKGGHCFPKEKICLPPSSDFGKMDCRWRWK CCKKGSG (YKQCHKKGGHCFPKEKICLPPSSDFGKMDCRWRWKCCKKGSG; UniProt Q9PWF3 23-64, looked up) [crotamine]
- result of in vitro transfection [1]: positive results
- signal on cell islets of pluripotent embryonic stem cells [2]: strong signal
- binding to chromosomes (chromosomes): binds to chromosomes in the metaphase
- interaction with plasmid DNA by circular dichroism spectra (plasmid DNA): presence of interaction
- effect of complex formation on electrophoretic mobility in agarose gel [3]: interfere in the electrophoretic mobility
- time to paralysis of the hind legs (mice): less than 15 minutes
